Experimental data from patent US9328083B2, “2-aminated methylene or 2-esterified methylene tanshinone derivatives, and preparation method and application thereof” (HANGZHOU BENSHENG PHARMACEUTICAL CO., LTD., priority 2011, dated 2016).
Values after ≈ are worked out from the molar mass of the structure shown.

Legend:
[1] = test system: H9 (acute lymphoblastic leukemia, ALL); experiment: MTT growth inhibition of leukemia cells, 72 h; assay type: cell-based, human; settings: Homo sapiens, H9, 72 h; for IC50: read-out: IC50; for IC90: read-out: IC90
Text: (§1) Leukemia cell lines: leukemia cell lines: K562/adr (drug-resistant, chronic myeloid leukemia, CML), NB4 (acute promyelocytic leukemia, AML), Kasumi-1 (acute myeloid leukemia M2 type, AML-M2), and Jurkat (acute lymphoblastic leukemia, ALL), all of which are donated by Cancer Research Institute of Zhejiang University, China; and H9 (acute lymphoblastic leukemia, ALL), which is purchased from China Center for Type Culture Collection (CCTCC).
(§2) The standard sample of tanshinone I (TA) and the 2-aminated methylene or 2-esterified methylene tanshinone I derivatives of the present invention are sufficiently dissolved with dimethylsulfoxide to produce a stock solution of 10 mg/mL, which is refrigerated at 4° C. and stored in dark, and is diluted with a cell culture medium to the desired concentration prior to experimentation.
(§3) Obtaining 6000 well-growing leukemia cells and inoculating them into wells of a 96-well cell culture plate. The culture medium is the RPMI-1640 cell culture medium containing 10% fetal bovine serum. After adding on the second day the 2-aminated methylene or 2-esterified methylene tanshinone I derivatives of different concentrations and mixing uniformly, placing the plate in a carbon dioxide cell incubator (5% CO2) at 37° C. and incubated for 72 hours. Then the viable cell concentration is determined by MTT method.

[2] = test system: Jurkat (acute lymphoblastic leukemia, ALL); experiment: MTT growth inhibition of leukemia cells, 72 h; assay type: cell-based, human; settings: Homo sapiens, 72 h; for IC50: read-out: IC50; for IC90: read-out: IC90
Text: as §1, §2, §3

[3] = test system: K562/adr (drug-resistant, chronic myeloid leukemia, CML); experiment: MTT growth inhibition of leukemia cells, 72 h; assay type: cell-based, human; settings: Homo sapiens, K562/Adr; for IC50: read-out: IC50; for IC90: read-out: IC90
Text: as §1, §2, §3

[4] = test system: Kasumi-1 (acute myeloid leukemia M2 type, AML-M2); experiment: MTT growth inhibition of leukemia cells, 72 h; assay type: cell-based, human; settings: Homo sapiens, Kasumi-1, 72 h; for IC50: read-out: IC50; for IC90: read-out: IC90
Text: as §1, §2, §3

[5] = test system: NB4 (acute promyelocytic leukemia, AML); experiment: MTT growth inhibition of leukemia cells, 72 h; assay type: cell-based, human; settings: Homo sapiens, NB4, 72 h; for IC50: read-out: IC50; for IC90: read-out: IC90
Text: as §1, §2, §3

[6] = test system: RPMI8226 (multiple myeloma); experiment: MTT growth inhibition of multiple myeloma cells, 72 h; assay type: cell-based, human; settings: Homo sapiens, RPMI 8226, 72 h; for IC50: read-out: IC50; for IC90: read-out: IC90
Description: Myeloma cell lines: RPMI8226 (multiple myeloma), purchased from Fuxiang Bio-tech Co. Ltd., Shanghai, China.
as §2
as §3, with “myeloma” for “leukemia”, “cells as above” for “cells”, “1640” for “RPMI-1640”, “adding” for “adding on the second day”

[7] = test system: A549 (human lung cancer); experiment: MTT growth inhibition of human solid tumor cells, 72 h; assay type: cell-based; settings: Homo sapiens, A549, 72 h; for IC50: read-out: IC50; for IC90: read-out: IC90
Description: (§4) Hep-2 (laryngeal carcinoma), A549 (human lung cancer), CaES-17 (esophageal cancer cell), PC-3 (prostate cancer), CNE (nasopharyngeal carcinoma cell), and SK-OV-3 (ovarian cancer cell), all of which are purchased from China Center For Type Culture Collection; RKO (human colon adenocarcinoma cell), MGC 803 (human gastric cancer cell), MG63 (osteosarcoma) and U87 MG (malignant glioma cell), all of which are purchased from Fuxiang Bio-tech Co. Ltd., Shanghai, China; PANC-1 (pancreatic cancer), Hep G2 (human liver cancer cell), Becap37 (human breast cancer cell) and Hela (human cervical cancer cell), all of which are donated by Cancer Research Institute of Zhejiang University, China.
as §2
(§5) Obtaining 4000 well-growing human solid tumor cells and inoculating them into wells of a 96-well cell culture plate. The culture medium is DMEM High Glucose cell culture medium containing 10% fetal bovine serum. The plate is placed in a carbon dioxide cell incubator (5% CO2) at 37° C. and incubated for 24 hours. After adding the 2-aminated methylene or 2-esterified methylene tanshinone I derivatives of different concentrations and mixing uniformly, the plate is placed in a carbon dioxide cell incubator (5% CO2) at 37° C. and incubated for 72 hours. Then the viable cell concentration is determined by the MTT method.

[8] = test system: Becap37 (human breast cancer cell); experiment: as above; assay type: cell-based; settings: Homo sapiens, Becap-37, 72 h; for IC50: read-out: IC50; for IC90: read-out: IC90
Description: as §4, §2, §5

[9] = test system: CNE (nasopharyngeal carcinoma cell); experiment: as above; assay type: cell-based; settings: Homo sapiens; for IC50: read-out: IC50; for IC90: read-out: IC90
Description: as §4, §2, §5

[10] = test system: CaES-17 (esophageal cancer cell); experiment: as above; assay type: cell-based; settings: Homo sapiens, CaEs17, CaEs-17, 72 h; for IC50: read-out: IC50; for IC90: read-out: IC90
Description: as §4, §2, §5

[11] = test system: Hela (human cervical cancer cell); experiment: as above; assay type: cell-based; settings: Homo sapiens, HeLa, 72 h; for IC50: read-out: IC50; for IC90: read-out: IC90
Description: as §4, §2, §5

[12] = test system: Hep G2 (human liver cancer cell); experiment: as above; assay type: cell-based; settings: Homo sapiens, HepG2, Hep G2, 72 h; for IC50: read-out: IC50; for IC90: read-out: IC90
Description: as §4, §2, §5

[13] = test system: Hep-2 (laryngeal carcinoma); experiment: as above; assay type: cell-based; settings: Homo sapiens, HEp-2, 72 h; for IC50: read-out: IC50; for IC90: read-out: IC90
Description: as §4, §2, §5

[14] = test system: MG63 (osteosarcoma); experiment: as above; assay type: cell-based; settings: Homo sapiens, MG-63, 72 h; for IC50: read-out: IC50; for IC90: read-out: IC90
Description: as §4, §2, §5

[15] = test system: MGC 803 (human gastric cancer cell); experiment: as above; assay type: cell-based; settings: Homo sapiens, MGC-803, 72 h; for IC50: read-out: IC50; for IC90: read-out: IC90
Description: as §4, §2, §5

[16] = test system: PANC-1 (pancreatic cancer); experiment: as above; assay type: cell-based; settings: Homo sapiens, PANC-1, 72 h; for IC50: read-out: IC50; for IC90: read-out: IC90
Description: as §4, §2, §5

[17] = test system: PC-3 (prostate cancer); experiment: as above; assay type: cell-based; settings: Homo sapiens, PC-3, 72 h; for IC50: read-out: IC50; for IC90: read-out: IC90
Description: as §4, §2, §5

[18] = test system: RKO (human colon adenocarcinoma cell); experiment: as above; assay type: cell-based; settings: Homo sapiens; for IC50: read-out: IC50; for IC90: read-out: IC90
Description: as §4, §2, §5

[19] = test system: SK-OV-3 (ovarian cancer cell); experiment: as above; assay type: cell-based; settings: Homo sapiens, SK-OV-3, 72 h; for IC50: read-out: IC50; for IC90: read-out: IC90
Description: as §4, §2, §5

[20] = test system: U87 MG (malignant glioma cell); experiment: as above; assay type: cell-based; settings: Homo sapiens, U-87 MG, U87-MG, 72 h; for IC50: read-out: IC50; for IC90: read-out: IC90
Description: as §4, §2, §5

Row | IC50 [1] | IC90 [1] | IC50 [2] | IC90 [2] | IC50 [3] | IC90 [3] | IC50 [4] | IC90 [4] | IC50 [5] | IC90 [5] | IC50 [6] | IC90 [6] | IC50 [7] | IC90 [7] | IC50 [8] | IC90 [8] | IC50 [9] | IC90 [9] | IC50 [10] | IC90 [10] | SMILES | other results
1 | 0.57 µg/mL (≈ 1.41 µM) | 0.9 µg/mL (≈ 2.22 µM) | 0.56 µg/mL (≈ 1.38 µM) | 0.99 µg/mL (≈ 2.44 µM) | 0.61 µg/mL (≈ 1.5 µM) | 1.61 µg/mL (≈ 3.97 µM) | 0.31 µg/mL (≈ 0.765 µM) | 1.28 µg/mL (≈ 3.16 µM) | 0.73 µg/mL (≈ 1.8 µM) | 1.9 µg/mL (≈ 4.69 µM) | 1.82 µg/mL (≈ 4.49 µM) | 3.92 µg/mL (≈ 9.67 µM) | 2.76 µg/mL (≈ 6.81 µM) | 6.41 µg/mL (≈ 15.8 µM) | 2.54 µg/mL (≈ 6.26 µM) | 4.92 µg/mL (≈ 12.1 µM) | 2.8 µg/mL (≈ 6.91 µM) | 7.2 µg/mL (≈ 17.8 µM) | 3 µg/mL (≈ 7.4 µM) | 5.07 µg/mL (≈ 12.5 µM) | CC(=O)OCCN(C)Cc1oc2c(c1C)C(=O)C(=O)c1c-2ccc2c(C)cccc12 [BS-TA-61] | IC50 [11]: 1.49 µg/mL (≈ 3.67 µM); IC90 [11]: 4 µg/mL (≈ 9.87 µM); IC50 [12]: 2.95 µg/mL (≈ 7.28 µM); IC90 [12]: 9.75 µg/mL (≈ 24 µM); IC50 [13]: 0.84 µg/mL (≈ 2.07 µM); IC90 [13]: 2.52 µg/mL (≈ 6.22 µM); IC50 [14]: 2.34 µg/mL (≈ 5.77 µM); IC90 [14]: 6.79 µg/mL (≈ 16.7 µM); IC50 [15]: 2.47 µg/mL (≈ 6.09 µM); IC90 [15]: 8.33 µg/mL (≈ 20.5 µM); IC50 [16]: 0.74 µg/mL (≈ 1.83 µM); IC90 [16]: 4.95 µg/mL (≈ 12.2 µM); IC50 [17]: 2.65 µg/mL (≈ 6.54 µM); IC90 [17]: 6.49 µg/mL (≈ 16 µM); IC50 [18]: 0.46 µg/mL (≈ 1.13 µM); IC90 [18]: 6.98 µg/mL (≈ 17.2 µM); IC50 [19]: 5.83 µg/mL (≈ 14.4 µM); IC90 [19]: 9.47 µg/mL (≈ 23.4 µM); IC50 [20]: 2.59 µg/mL (≈ 6.39 µM); IC90 [20]: 3.87 µg/mL (≈ 9.54 µM)
2 | 0.6 µg/mL (≈ 1.34 µM) | 1.8 µg/mL (≈ 4.02 µM) | 0.89 µg/mL (≈ 1.99 µM) | 3.47 µg/mL (≈ 7.75 µM) | 0.78 µg/mL (≈ 1.74 µM) | 3.48 µg/mL (≈ 7.78 µM) | 0.42 µg/mL (≈ 0.938 µM) | 0.97 µg/mL (≈ 2.17 µM) | 1.42 µg/mL (≈ 3.17 µM) | 3.85 µg/mL (≈ 8.6 µM) | 2.64 µg/mL (≈ 5.9 µM) | 7.68 µg/mL (≈ 17.2 µM) | 3.3 µg/mL (≈ 7.37 µM) | 21.4 µg/mL (≈ 47.7 µM) | 5.04 µg/mL (≈ 11.3 µM) | 11.6 µg/mL (≈ 26 µM) | 1.8 µg/mL (≈ 4.02 µM) | 18 µg/mL (≈ 40.2 µM) | 6.33 µg/mL (≈ 14.1 µM) | 11.8 µg/mL (≈ 26.4 µM) | Cc1c(CN(C)CCOC(=O)C(C)(C)C)oc2c1C(=O)C(=O)c1c-2ccc2c(C)cccc12 [BS-TA-62] | IC50 [11]: 9.26 µg/mL (≈ 20.7 µM); IC90 [11]: > 16 µg/mL; IC50 [12]: 5.41 µg/mL (≈ 12.1 µM); IC90 [12]: 22.6 µg/mL (≈ 50.4 µM); IC50 [13]: 6.81 µg/mL (≈ 15.2 µM); IC90 [13]: > 16 µg/mL; IC50 [14]: 4.88 µg/mL (≈ 10.9 µM); IC90 [14]: > 16 µg/mL; IC50 [15]: 6.3 µg/mL (≈ 14.1 µM); IC90 [15]: 14.1 µg/mL (≈ 31.4 µM); IC50 [16]: 1.42 µg/mL (≈ 3.17 µM); IC90 [16]: 16 µg/mL (≈ 35.8 µM); IC50 [17]: 3.21 µg/mL (≈ 7.17 µM); IC90 [17]: 8.76 µg/mL (≈ 19.6 µM); IC50 [18]: 0.47 µg/mL (≈ 1.05 µM); IC90 [18]: > 16 µg/mL; IC50 [19]: > 16 µg/mL; IC90 [19]: > 16 µg/mL; IC50 [20]: 3.2 µg/mL (≈ 7.15 µM); IC90 [20]: 7.65 µg/mL (≈ 17.1 µM)
